Entries after “also recorded” stand apart in the source; their conditions may differ.
Key:
patients = details: clinical trials, de Koning et al. 1994; cited from earlier work
5-HT1a receptor = details: Schipper et al. 1990; cited from earlier work
[1] = Rodgers et al., 1992; Rocha et al., 1994; cited from earlier work
[2] = tested on: 5-HT2c (initially designated 5-HT1c); details: Schipper et al. 1990; cited from earlier work
[3] = target: T1, 5-HT2a recombinant receptor (Homo sapiens, UniProt P28223); test: Aequorin cell line functional assay; assay type: cell-based; details: human recombinant cell lines; FIG. 1
T1 construct: expressed in transfected cells
Description: (§1) Aequorin cell lines expressing the 5-HT2a, 5-HT2b and 5-HT2c non-edited (ne) recombinant receptors were used to evaluate the functional activity of eltoprazine. Aequorin cells grown 18 h prior to the test in media without antibiotics were detached by gentle flushing with PBS-EDTA (5 mM EDTA), recovered by centrifugation and resuspended in “assay buffer” (DMEM/HAM's F12 with HEPES+0.1% BSA protease free). Cells were incubated at room temperature for at least 4 h with Coelenterazine h (Molecular Probes). The reference agonist used were 5-HT and α-methyl-5-HT. For agonist testing, 50 μl of cell suspension were injected on 50 μl of test compound or reference agonist plated in a 96-well plate. The resulting emission of light was recorded using the Hamamatsu Functional Drug Screening System 6000 (FDSS 6000).

[4] = target: T2, 5-HT2c non-edited (ne) recombinant receptor (Homo sapiens, UniProt P28335); test: Aequorin cell line functional assay; assay type: cell-based; details: human recombinant cell lines; FIG. 1
T2 construct: expressed in transfected cells
T2 sequence (P28335 33-458): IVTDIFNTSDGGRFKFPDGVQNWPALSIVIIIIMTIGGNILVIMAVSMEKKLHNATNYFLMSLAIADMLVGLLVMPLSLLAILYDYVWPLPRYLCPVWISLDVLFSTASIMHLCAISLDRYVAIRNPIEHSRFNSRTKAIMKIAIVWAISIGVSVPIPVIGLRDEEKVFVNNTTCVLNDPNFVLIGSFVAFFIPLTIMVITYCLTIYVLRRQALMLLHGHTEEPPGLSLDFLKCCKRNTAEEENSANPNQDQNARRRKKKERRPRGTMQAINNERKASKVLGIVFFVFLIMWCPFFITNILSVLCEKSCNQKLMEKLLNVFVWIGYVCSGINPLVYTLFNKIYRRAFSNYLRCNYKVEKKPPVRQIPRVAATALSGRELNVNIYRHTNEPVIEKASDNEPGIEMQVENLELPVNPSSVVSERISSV
Description: as §1

Sprague-Dawley rats = test: Contextual fear conditioning; assay type: in vivo; details: acute s.c. 0.078 to 1.25 mg/kg, 60 min before the test; FIG. 4
Description: For contextual fear conditioning, open field, fear potentiated startle and elevate plus maze, experimentally naive adult male Sprague-Dawley rats (250-300 g; Janvier, France) were housed in groups of four per cage. Colony room temperature and humidity were maintained respectively at 20±1° C. and 60±3%. Food and water were available ad libitum and the animals were kept under an alternating 12 h/12 h day-night cycle (lights on at 07.00) for at least 6 days before the experiments were started. All experiments were conducted during the light period of the day-night cycle. For the Vogel test, male experimentally naive Wistar rats (180-220 g, State Breeding Farm “Rappolovo”, St. Petersburg, Russia; N=109) were used. Each animal was used only once.
Eltoprazine hydrochloride was dissolved in sterile water. […]
For training and testing, subjects were placed in test cages (30 cm wide, 29 cm high and 25 cm deep) equipped with a grid floor consisting of 18 stainless steel bars (3 mm ID). […] 24 h after conditioning, subjects are placed back in the test cages and freezing is recorded for a period of 5 min. […]
Percent of freezing during the 5 min expression test on day 2 is taken for statistical analysis. Data are analysed by one-way ANOVA on ranks followed by rank sum tests.

T1 sequence (P28223 whole entry): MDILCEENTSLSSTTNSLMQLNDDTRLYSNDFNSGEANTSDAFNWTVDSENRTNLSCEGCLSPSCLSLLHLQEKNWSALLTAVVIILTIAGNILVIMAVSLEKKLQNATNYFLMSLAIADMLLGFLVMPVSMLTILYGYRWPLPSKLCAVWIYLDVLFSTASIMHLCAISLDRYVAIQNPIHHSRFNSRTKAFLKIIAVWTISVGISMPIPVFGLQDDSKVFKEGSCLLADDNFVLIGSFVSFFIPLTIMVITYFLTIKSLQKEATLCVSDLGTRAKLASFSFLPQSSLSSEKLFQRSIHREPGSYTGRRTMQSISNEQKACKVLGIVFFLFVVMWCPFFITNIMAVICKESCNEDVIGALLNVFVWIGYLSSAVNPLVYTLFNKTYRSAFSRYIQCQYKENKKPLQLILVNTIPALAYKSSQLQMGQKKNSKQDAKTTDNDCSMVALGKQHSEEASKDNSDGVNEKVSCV

Question: What does the source list for `c1cc2c(c(N3CCNCC3)c1)OCCO2` [eltoprazine, 1-(2,3-dihydro-1,4-benzodioxin-5-yl)piperazine]?
Answer: clinical safety (patients): clinically safe; effect on 5-HT1a receptor (5-HT1a receptor): agonistic effect; effect in the elevated plus maze, previous data [1]: anxiogenic-like effects; effect on 5-HT2c [2]: antagonistic; functional activity at 5-HT2a receptor [3]: full agonist; functional activity at 5-HT2c receptor [4]: full agonist; time spent freezing during re-exposure to the conditioning context (Sprague-Dawley rats): dose-dependently induced anxiolytic-like effects; also recorded: very strong anxiolytic effect

From patent US20120136005A1, “E[…] THE TREATMENT OF ANXIETY” (MERZ PHARMA GmbH & CO. KGaA, priority 2009, published 2012)
